Measurements published in patent US10787450B2 (BRISTOL-MYERS SQUIBB COMPANY, priority 2016, dated 2020).

Molecular target: ROCK2 (Homo sapiens (Human), UniProt O75116)
Test: ROCK2 kinase inhibition assay (FITC peptide substrate, LABCHIP 3000 Reader)
Format: biochemical
Conditions: 5 μM ATP, 1.5 μM peptide substrate
Procedure, shortened: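 Reaction in 20 mM HEPES pH 7.5, 20 mM MgCl2, 0.015% Brij-35, 4 mM DTT with 5 μM ATP and 1.5 μM FITC-AHA-AKRRRLSSLRA-OH peptide, started with Rho kinase, DMSO <2%. EDTA-stopped; phospho and non-phospho peptide separated by mobility shift. IC50 from dose-response curve fit.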

ROCK2, sequence (O75116 whole entry, species assumed): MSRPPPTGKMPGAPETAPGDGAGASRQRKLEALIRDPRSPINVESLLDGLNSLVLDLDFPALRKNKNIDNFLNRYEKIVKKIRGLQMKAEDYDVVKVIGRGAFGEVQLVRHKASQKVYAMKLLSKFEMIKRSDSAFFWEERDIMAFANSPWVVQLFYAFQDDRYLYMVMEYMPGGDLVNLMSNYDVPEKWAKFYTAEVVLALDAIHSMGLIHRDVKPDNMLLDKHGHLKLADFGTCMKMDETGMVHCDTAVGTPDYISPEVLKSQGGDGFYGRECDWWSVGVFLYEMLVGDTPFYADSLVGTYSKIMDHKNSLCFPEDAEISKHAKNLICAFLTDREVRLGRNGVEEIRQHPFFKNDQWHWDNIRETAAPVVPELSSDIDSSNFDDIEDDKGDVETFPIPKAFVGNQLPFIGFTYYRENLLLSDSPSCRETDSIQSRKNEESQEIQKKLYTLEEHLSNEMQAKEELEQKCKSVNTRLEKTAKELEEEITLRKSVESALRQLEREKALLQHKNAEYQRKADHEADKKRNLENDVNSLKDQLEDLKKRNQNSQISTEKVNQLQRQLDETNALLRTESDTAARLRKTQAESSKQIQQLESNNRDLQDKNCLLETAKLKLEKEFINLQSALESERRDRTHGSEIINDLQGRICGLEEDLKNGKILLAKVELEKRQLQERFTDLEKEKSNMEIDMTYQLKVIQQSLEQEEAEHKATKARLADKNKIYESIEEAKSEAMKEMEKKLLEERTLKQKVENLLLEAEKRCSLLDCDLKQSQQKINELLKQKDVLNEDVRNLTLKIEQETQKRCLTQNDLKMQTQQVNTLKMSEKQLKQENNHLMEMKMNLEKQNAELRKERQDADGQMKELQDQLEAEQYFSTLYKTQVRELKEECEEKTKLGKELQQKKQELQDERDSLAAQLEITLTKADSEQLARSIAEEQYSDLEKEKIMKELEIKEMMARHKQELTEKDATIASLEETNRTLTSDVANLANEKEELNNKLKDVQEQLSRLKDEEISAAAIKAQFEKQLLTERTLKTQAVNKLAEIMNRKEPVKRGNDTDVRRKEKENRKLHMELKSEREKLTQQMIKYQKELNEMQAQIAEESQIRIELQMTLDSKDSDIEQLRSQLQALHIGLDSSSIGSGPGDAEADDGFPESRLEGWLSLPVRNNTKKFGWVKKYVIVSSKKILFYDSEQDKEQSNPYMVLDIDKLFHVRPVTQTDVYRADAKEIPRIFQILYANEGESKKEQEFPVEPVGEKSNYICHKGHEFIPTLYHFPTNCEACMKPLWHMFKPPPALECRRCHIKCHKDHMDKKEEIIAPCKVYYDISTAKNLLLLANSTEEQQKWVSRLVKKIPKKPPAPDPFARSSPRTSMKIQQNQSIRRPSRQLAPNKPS

IC50 [nM] | Compound
< 3 | COc1nc(N2CC3(CCN(C(C)=O)CC3)N(Cc3cccc(F)c3C)C2=O)ccc1-c1cn[nH]c1 [Example 86, 8-acetyl-1-(3-fluoro-2-methylbenzyl)-3-(6-methoxy-5-(1H-pyrazol-4-yl)pyridin-2-yl)-1,3,8-triazaspiro[4.5]decan-2-one]
< 3 | CCc1nc(N2CC3(CCN(C(C)=O)CC3)N(Cc3cccc(F)c3C)C2=O)ccc1-c1cn[nH]c1 [Example 87, 8-acetyl-3-(6-ethyl-5-(1H-pyrazol-4-yl)pyridin-2-yl)-1-(3-fluoro-2-methylbenzyl)-1,3,8-triazaspiro[4.5]decan-2-one]
< 3 | CCc1nc(N2CC3(CCN(C(C)=O)CC3)N(Cc3cccc(OC)c3)C2=O)ccc1-c1cn[nH]c1 [Example 88, 8-acetyl-3-(6-ethyl-5-(1H-pyrazol-4-yl)pyridin-2-yl)-1-(3-methoxybenzyl)-1,3,8-triazaspiro[4.5]decan-2-one]
< 3 | CCc1nc(N2CC3(CCN(C(C)=O)CC3)N(Cc3cc(F)cc(OC)c3)C2=O)ccc1-c1cn[nH]c1 [Example 89, 8-acetyl-3-(6-ethyl-5-(1H-pyrazol-4-yl)pyridin-2-yl)-1-(3-fluoro-5-methoxybenzyl)-1,3,8-triazaspiro[4.5]decan-2-one]
3 to 30 | COc1cccc(CN2C(=O)N(c3ncc(-c4cn[nH]c4)c(OC)n3)CC23CCN(C(C)=O)CC3)c1 [Example 90, 8-acetyl-3-(4-methoxy-5-(1H-pyrazol-4-yl)pyrimidin-2-yl)-1-(3-methoxybenzyl)-1,3,8-triazaspiro[4.5]decan-2-one]
< 3 | CNC(=O)N1CCC2(CC1)CN(c1ccc(-c3cn[nH]c3)cc1)C(=O)N2Cc1cccc(OC)c1 [Example 91, 3-(4-(1H-pyrazol-4-yl)phenyl)-1-(3-methoxybenzyl)-N-methyl-2-oxo-1,3,8-triazaspiro[4.5]decane-8-carboxamide]
< 3 | COc1cccc(CN2C(=O)N(c3ccc(-c4cn[nH]c4)cc3)CC23CCN(C(N)=O)CC3)c1 [Example 92, 3-(4-(1H-pyrazol-4-yl)phenyl)-1-(3-methoxybenzyl)-2-oxo-1,3,8-triazaspiro[4.5]decane-8-carboxamide]
< 3 | COc1cccc(CN2C(=O)N(c3ccc(-c4cn[nH]c4)cc3)CC23CCN(C(=O)N(C)C)CC3)c1 [Example 93, 3-(4-(1H-pyrazol-4-yl)phenyl)-1-(3-methoxybenzyl)-N,N-dimethyl-2-oxo-1,3,8-triazaspiro[4.5]decane-8-carboxamide]
< 3 | COC(=O)N1CCC2(CC1)CN(c1ccc(-c3cn[nH]c3)cc1)C(=O)N2Cc1cccc(OC)c1 [Example 94, Methyl 3-(4-(1H-pyrazol-4-yl)phenyl)-1-(3-methoxybenzyl)-2-oxo-1,3,8-triazaspiro[4.5]decane-8-carboxylate]
< 3 | COc1cccc(CN2C(=O)N(c3ccc(-c4cn[nH]c4)cc3)CC23CCN(C(=O)OCC(C)C)CC3)c1 [Example 95, isobutyl 3-(4-(1H-pyrazol-4-yl)phenyl)-1-(3-methoxybenzyl)-2-oxo-1,3,8-triazaspiro[4.5]decane-8-carboxylate]
< 3 | CCOC(=O)N1CCC2(CC1)CN(c1ccc(-c3cn[nH]c3)cc1)C(=O)N2Cc1cccc(OC)c1 [Example 96, ethyl 3-(4-(1H-pyrazol-4-yl)phenyl)-1-(3-methoxybenzyl)-2-oxo-1,3,8-triazaspiro[4.5]decane-8-carboxylate]
3 to 30 | COc1cccc(CN2C(=O)N(c3ccc(-c4cn[nH]c4)cc3)CC23CCN(C(=O)OCC(C)(C)C)CC3)c1 [Example 97, neopentyl 3-(4-(1H-pyrazol-4-yl)phenyl)-1-(3-methoxybenzy1)-2-oxo-1,3,8-triazaspiro[4.5]decane-8-carboxylate]
< 3 | COCCOC(=O)N1CCC2(CC1)CN(c1ccc(-c3cn[nH]c3)cc1)C(=O)N2Cc1cccc(OC)c1 [Example 98, 2-methoxyethyl 3-(4-(1H-pyrazol-4-yl)phenyl)-1-(3-methoxybenzyl)-2-oxo-1,3,8-triazaspiro[4.5]decane-8-carboxylate]
< 3 | COc1cccc(CN2C(=O)N(c3ccc(-c4cn[nH]c4)cc3)CC23CCN(C(=O)OC(C)C)CC3)c1 [Example 99, isopropyl 3-(4-(1H-pyrazol-4-yl)phenyl)-1-(3-methoxybenzyl)-2-oxo-1,3,8-triazaspiro[4.5]decane-8-carboxylate]
< 3 | CCCOC(=O)N1CCC2(CC1)CN(c1ccc(-c3cn[nH]c3)cc1)C(=O)N2Cc1cccc(OC)c1 [Example 100, propyl 3-(4-(1H-pyrazol-4-yl)phenyl)-1-(3-methoxybenzyl)-2-oxo-1,3,8-triazaspiro[4.5]decane-8-carboxylate]
3 to 30 | COc1cccc(CN2C(=O)N(c3ccc(-c4cn[nH]c4)cc3)CC23CCN(C(=O)OCCOCc2ccccc2)CC3)c1 [Example 101, 2-(benzyloxy)ethyl 3-(4-(1H-pyrazol-4-yl)phenyl)-1-(3-methoxybenzyl)-2-oxo-1,3,8-triazaspiro[4.5]decane-8-carboxylate]

IC50 [nM] | Compound
< 3 | COC(=O)N1CCC2(CC1)CN(c1ccc(-c3cn[nH]c3)c(OC)n1)C(=O)N2Cc1cccc(OC)c1 [Example 102, methyl 3-(6-methoxy-5-(1H-pyrazol-4-yl)pyridin-2-yl)-1-(3-methoxybenzyl)-2-oxo-1,3,8-triazaspiro[4.5]decane-8-carboxylate]
< 3 | COC(=O)N1CCC2(CC1)CN(c1ccc(-c3cn[nH]c3)c(OC)n1)C(=O)N2Cc1cccc(F)c1C [Example 103, methyl 1-(3-fluoro-2-methylbenzyl)-3-(6-methoxy-5-(1H-pyrazol-4-yl)pyridin-2-yl)-2-oxo-1,3,8-triazaspiro[4.5]decane-8-carboxylate]
< 3 | CCc1nc(N2CC3(CCN(C(=O)OC)CC3)N(Cc3cccc(F)c3C)C2=O)ccc1-c1cn[nH]c1 [Example 104, methyl 3-(6-ethyl-5-(1H-pyrazol-4-yl)pyridin-2-yl)-1-(3-fluoro-2-methylbenzyl)-2-oxo-1,3,8-triazaspiro[4.5]decane-8-carboxylate]
< 3 | CCc1nc(N2CC3(CCN(C(=O)OC)CC3)N(Cc3cccc(OC)c3)C2=O)ccc1-c1cn[nH]c1 [Example 105, methyl 3-(6-ethyl-5-(1H-pyrazol-4-yl)pyridin-2-yl)-1-(3-methoxybenzyl)-2-oxo-1,3,8-triazaspiro[4.5]decane-8-carboxylate]
3 to 30 | CCOC(=O)N1CCC2(CC1)CN(c1ccc(-c3cn[nH]c3)c(CC)n1)C(=O)N2Cc1cc(F)cc(OC)c1 [Example 106, ethyl 3-(6-ethyl-5-(1H-pyrazol-4-yl)pyridin-2-yl)-1-(3-fluoro-5-methoxybenzyl)-2-oxo-1,3,8-triazaspiro[4.5]decane-8-carboxylate]
< 3 | CCc1nc(N2CC3(CCN(C(=O)OC)CC3)N(Cc3cc(F)cc(OC)c3)C2=O)ccc1-c1cn[nH]c1 [Example 107, methyl 3-(6-ethyl-5-(1H-pyrazol-4-yl)pyridin-2-yl)-1-(3-fluoro-5-methoxybenzyl)-2-oxo-1,3,8-triazaspiro[4.5]decane-8-carboxylate]
< 3 | COC(=O)N1CCC2(CC1)CN(c1ccc(-c3cn[nH]c3)cc1)C(=O)N2Cc1cccc(F)c1C [Example 108, methyl 3-(4-(1H-pyrazol-4-yl)phenyl)-1-(3-fluoro-2-methylbenzyl)-2-oxo-1,3,8-triazaspiro[4.5]decane-8-carboxylate]
< 3 | COC(=O)N1CCC2(CC1)CN(c1ccc(-c3cn[nH]c3)cc1)C(=O)N2Cc1cc(F)cc(OC)c1 [Example 109, methyl 3-(4-(1H-pyrazol-4-yl)phenyl)-1-(3-fluoro-5-methoxybenzyl)-2-oxo-1,3,8-triazaspiro[4.5]decane-8-carboxylate]
30 to 250 | CCOC(=O)N1CCC2(CC1)CN(c1ccc(-c3cn[nH]c3)cn1)C(=O)N2Cc1cccc(OC)c1 [Example 110, ethyl 3-(5-(1H-pyrazol-4-yl)pyridin-2-yl)-1-(3-methoxybenzyl)-2-oxo-1,3,8-triazaspiro[4.5]decane-8-carboxylate]
3 to 30 | COC(=O)N1CCC2(CC1)CN(c1ncc(-c3cn[nH]c3)c(OC)n1)C(=O)N2Cc1cccc(OC)c1 [Example 111, methyl 3-(4-methoxy-5-(1H-pyrazol-4-yl)pyrimidin-2-yl)-1-(3-methoxybenzyl)-2-oxo-1,3,8-triazaspiro[4.5]decane-8-carboxylate]
3 to 30 | CCOC(=O)N1CCC2(CC1)CN(c1ncc(-c3cn[nH]c3)c(OC)n1)C(=O)N2Cc1cccc(OC)c1 [Example 112, ethyl 3-(4-methoxy-5-(1H-pyrazol-4-yl)pyrimidin-2-yl)-1-(3-methoxybenzyl)-2-oxo-1,3,8-triazaspiro[4.5]decane-8-carboxylate]
< 3 | COc1cccc(CN2C(=O)N(c3ccc(-c4cn[nH]c4)cc3)CC23CCN(C)CC3)c1 [Example 113, 3-(4-(1H-pyrazol-4-yl)phenyl)-1-(3-methoxybenzyl)-8-methyl-1,3,8-triazaspiro[4.5]decan-2-one]
< 3 | COc1cccc(CN2C(=O)N(c3ccc(-c4cn[nH]c4)cc3)CC23CCN(CC2CCOC2)CC3)c1 (stereo not shown) [Example 114, 3-(4-(1H-pyrazol-4-yl)phenyl)-1-(3-methoxybenzyl)-8-((tetrahydrofuran-3-yl)methyl)-1,3,8-triazaspiro[4.5]decan-2-one]
< 3 | COc1cccc(CN2C(=O)N(c3ccc(-c4cn[nH]c4)cc3)CC23CCN(CC2CC2)CC3)c1 [Example 115, 3-(4-(1H-pyrazol-4-yl)phenyl)-8-(cyclopropylmethyl)-1-(3-methoxybenzyl)-1,3,8-triazaspiro[4.5]decan-2-one]
< 3 | CCCN1CCC2(CC1)CN(c1ccc(-c3cn[nH]c3)cc1)C(=O)N2Cc1cccc(OC)c1 [Example 116, 3-(4-(1H-pyrazol-4-yl)phenyl)-1-(3-methoxybenzyl)-8-propyl-1,3,8-triazaspiro[4.5]decan-2-one]
